Data published in patent publication US7314959B2, “Amino thiol compounds and compositions for use in conjunction with cancer therapy” (Wisconsin Alumni Research Foundation, priority 2003, dated 2008).
Entries after “also recorded” stand apart in the source; their conditions may differ. Where two headings read alike, the source gives them in different places.

How the values were obtained:
[1] = test system: Phase I/Phase II/Phase III drug metabolizing/exporting gene products in neonate rat skin; test: Nucleic acid arrays of topically treated neonate rat skin; assay type: in vivo; details: topical treatment of neonate rat skin for 3-6 days
From the text: Two examples of genes whose expression was induced following topical β-naphthaflavone treatment included, glutathione S-transferase (several separate isoforms that conjugate/detoxify drug electrophiles), and MRP (mdr-related protein, drug exporting membrane pump).

[2] = test system: radiation-induced dermatitis on backs of rats; test: Radiation-induced dermatitis in rat skin model; assay type: in vivo; details: for protective effect against radiation-induced dermatitis (FIG. 8D): topical in carrier vehicle before 5.5 min Cs137 irradiation
Experimental: To determine efficacy of chemoprotective polyamines in preventing radiation-induced dermatitis, adult rats were topically treated with the compounds before and after radiation treatment. Rats were exposed to medically relevant levels of radiation that could induce clinical radiation dermatitis. Sprague Dawley rats (Harlan Spraque Dawley) at 4-6 weeks-old were anesthetized with sodium pentobarbital at 40 mg/kg body weight (Sigma, St. Louis, Mo.) prior to radiation exposure. A defined area (1.5×2 cm) on the backs of rats was irradiated using a Mark I, Model 30, Cs 137 irradiator (J. L. Sheppard & Associates). Before topical drug treatment or irradiation, the backs of the rats were clipped using an Oster clipper at the closest setting. The rest of the body was protected from radiation exposure using a lead shield (2.5 cm thick). A dose response study was initially performed to reproduce relevant dermatitis that matched the Grade (I-IV) scale used to score the severity of radiation-induced dermatitis in humans. The severity of the dermatitis was scored 12-13 days post-irradiation at the peak of the dermal inflammation. […] Radiation dermatitis of Grade II-III was considered most clinically relevant, so a radiation dose of 8.7 Gy was typically used in the rats. The clipped back region on the rats was treated topically with aminothiol in delivery vehicle four times in the two hours immediately preceding irradiation (at −2 hr, −1 hr, −30 min, and −10 min; irradiation was at 0 min
The polyamines or amino thiols were prepared in a delivery vehicle, consisting of ethanol:propylene glycol:water, ranging from 0:95:5 to 50:30:20 depending upon the solubility characteristics of the topical molecule, and the degree of dermal penetration desired. A vehicle composed of an emulsion formed by sonication of ‘nonionic liposomes’ and isopropyl myristate was also used (Jayaraman, S. et al., J. Pharm. Sci. 85:1082-1084, 1996). In a commonly used protocol, 220 μl of topical drug/vehicle was applied to an area ˜2 cm×3 cm on the back in the 2 hr just prior to irradiation. Rats treated with only the delivery vehicle served as controls. Twelve to thirteen days post-radiation, the rats were evaluated for dermatitis within the irradiated area. In early studies, a modified scoring scale described by Masuda K. et al., Int. J. Radiation Oncol. Biol. Phys: 12, 1645 (1986) was used, and in later studies, including those described here, a simplified scoring system was used in which the percentage of the irradiated, rectangular field covered with scrab material was estimated between 0 and 100% to provide scores on a scale between 0 and 100.
This example relates to the use of a rat skin model to evaluate the efficacy of two amino thiol compounds in preventing radiation-induced dermatitis. To test whether topically-applied aminothiols could prevent the radiodermatitis caused by external beam radiotherapy, the rodent model described in Example 3 was slightly modified. Briefly, the radiodermatitis model involved: • i) shaving the backs of 6-7 week old rats or mice; • ii) applying four topical doses of aminothiol in a delivery vehicle composed of ethanol:propylene glycol (PG):water in the 2 hr prior to irradiation; • iii) irradiating a small, 3 cm^2 (1.5×2 cm) area on the animal's back (through a window in a lead plate) with 8.7 Gy of γ radiation from a Cs^137 source; and • iv) scoring the severity of the dermatitis 12-13 days later, at the peak of the inflammatory skin reaction. Radiodermatitis severity was scored by estimating the percentage of the irradiated field that was covered by scrab material.
Methods: Treatments were applied as described in Example 6.

23SK human skin cells = test: Protection of human skin cells against phosphoramide mustard; assay type: cell-based; details: 4 mM preload 30 min, phosphoramide mustard 40 min
Experimental: An in vitro cell culture assay was developed to determine the ability of chemoprotective polyamines, chemoprotective amino thiols and other molecules to confer radioprotection or chemoprotection to human skin cells. Diploid, human foreskin fibroblasts (23SK cells) were maintained in DMEM supplemented with 20% fetal bovine serum and gentamycin. For toxicity experiments, cells were seeded at a density of 750 cells/100 μl of DMEM+20% FBS+gentamycin into each well of 96 well plates (Corning, Corning, N.Y.). The next day, solutions of protective drug molecules, typically at 4 mM concentration, were prepared in Dulbecco's phosphate-buffered saline (D-PBS); each stock was titrated back to pH 7.0-7.5, if necessary, using sterile HCl or NaOH. Media was aspirated from cell wells, wells were rinsed with D-PBS, and loading solutions were then added to wells. Cells were typically exposed to loading solutions for 30 min. Following this drug loading period, plates were either placed directly into a Shepherd Mark II Cs^137 irradiator for irradiation (38 min), or wells were aspirated and the solution immediately replaced with a solution of D-PBS containing 350 μM phosphoramide mustard (obtained from NCI Chemical Repository) for a 40 min incubation at room temperature. After either treatment, wells were aspirated, rinsed and then given 100 μl of DMEM+20% FBS+gentamycin. Plates were maintained in 5% CO2 within a humidified chamber within a humidified incubator for 4-5 days at 37° C. […] of MTT solution (Promega Corp., Madison, Wis.) was then added to each well, and color development occurred over the next 3 hr at 37° C. Absorbance at 490 nm was then determined using a plate reader, and cell growth in treated wells compared to cell growth in wells loaded with vehicle and not irradiated or exposed to phosphoramide mustard was plotted using GraphPad software.

[3] = test system: primary, human skin fibroblasts; test: Cell cycle block in human skin fibroblasts (flow cytometry); assay type: cell-based; details: for cell cycle block (phase): log-phase human fibroblast cultures; for reversibility of cell cycle block: upon washout or removal of the drug
Experimental: (§1) Methods (Cell cycle and p21 western): The cell culture experiments were done using primary, human skin fibroblasts, one strain of which (BJ cells) was obtained from ATCC (American Type Culture Collection). […] For flow cytometry and p21 experiments, cells were plated at 0.5×10^6 cells/150 mm plate, and 24 hr later, drug molecules (4100 μM PrC-210, 600 μM cysteamine, 205 μM cysteamine analog, 0.4 μg/ml colcemid) were added to medium. […] (Cancer Research. 61(21):7754-62, 2001). As per the cited reference, cells were fixed, treated with RNAse, and stained with propidium iodide for flow cytometry, or cells were extracted, proteins electrophoresed, and probed with anti-p21 antibody (#SXM-30) for western blot analysis.

cell cycle = details: Jeitner and Renton 1996; Snyder and Grdina 2000; Kramer et al. 1997; cited from earlier work
mouse skin = details: cited from earlier work
p21 in human fibroblasts = test: p21 western blot in human skin fibroblasts; assay type: cell-based; details: IC70 concentration of PrC-210 (4100 μM); cysteamine 600 μM; 30 hour exposure
Experimental: as §1

cells in tissue culture = details: Purdie 1979; cited from earlier work
[4] = test system: radiation-induced alopecia in 11 day old rat pups; details: vehicle 50:25:25
Experimental: In some cases, topical vasoconstrictors may be used to reduce the severity of cancer therapy side-effects. […] Because cysteamine might have been toxic if distributed systemically at high concentrations in animals, a vasoconstrictor, in this case epinephrine (epinephrine-HCl, Sigma Chemical, 20 mM in topical 0:95:5 vehicle; ethanol:PG:water) was topically co-applied with cysteamine in an effort to prevent any potential uptake of the small aminothiol by skin vasculature. […] These initial experiments were done using a rat model where whole-body radiation is used to induce alopecia. This protocol is a variation of the Cytoxan-induced alopecia protocol described in Example 2. Here, 11 day old rat pups receive four topical treatments to their backs in the two hour period (at −2 hr, −1 hr, −30 min, −10 min) just prior to receiving whole-body irradiation (3.65 min) in a Cs137 irradiator. […] The topical vehicle varies from 0:95:5 (ethanol:PG:water) to 50:30:20, depending upon the solubility and concentration of the particular aminothiol. […] Following irradiation, the animals are housed with lactating mothers for 9 days and protection from radiation-induced alopecia within the topically-treated area is scored on day 20 of life. Protection is scored as the percentage of coat density seen in unirradiated rats.
Here, epinephrine-HCl (FW:220) was dissolved in an ethanol:propylene glycol:water delivery vehicle and was applied four times in the two hours just prior to irradiating the 11 day old rat pups. The animals were then housed with lactating mothers until day 20 of life when the degree of protection conferred by the topical epinephrine was scored.

SMILES | protective effect against radiation-induced dermatitis (FIG. 8D) [2] | protective effect on cell growth against phosphoramide mustard (FIG. 8B) (23SK human skin cells) | cell cycle block (phase) [3] | cell cycle arrest reported in literature (cell cycle) | reversibility of cell cycle block [3] | radioprotector activity when added to cells in tissue culture (cells in tissue culture) | also measured
O=c1cc(-c2ccccc2)oc2ccc3ccccc3c12 [β-naphthaflavone] | – | – | – | – | – | – | number of Phase I/Phase II/Phase III drug metabolizing/exporting gene products activated [1]: at least 40
NCCCNCCSP(=O)(O)O [amifostine] | lack of a protective effect | not significantly different than that seen in the vehicle control | G2 cell cycle block that could not be reversed | arresting cells in the G2 phase | – | – | effect of systemic drug on radiation-induced skin damage (mouse skin; systemic, mice, Lowy et al. 1972): effective in reducing radiation-induced skin damage; protective effect when applied topically to mouse skin (mouse skin; topical, Verhey et al. 1983): no protective effect; effect of topical application on radiation-induced skin damage (mouse skin; topical, mice, Lowy et al. 1972): showed no protective effect
NCCS [cysteamine] | – | conferred a protective effect | cell cycle block in G2; also recorded: G2 cell cycle block that could not be reversed | arrest in G2/M | not reversible | active as a radioprotector | effect on radiation dermatitis ([2]; 600-1200 mM applied to backs of rats two hours prior to radiation): eliminate radiation dermatitis; p21 expression (p21 in human fibroblasts): does not induce such expression
CNC[C@H](O)c1ccc(O)c(O)c1 [epinephrine] | – | – | – | – | – | – | Dermatitis Score (% of irradiated field free of scab material) ([2]; 20 mM epinephrine, vehicle 0:95:5, cage 480, 8.7 Gy): 20 ± 8%; Alopecia Score (% Normal Coat Density in Topical Treatment Area) ([4]; 20 mM epinephrine, 3.65 min γ irradiation (Cs137), Experiment 647-650): 10%; Alopecia Score (% Normal Coat Density in Topical Treatment Area) ([4]; 100 mM epinephrine, 3.65 min γ irradiation): 35 ± 19%; Alopecia Score (% Normal Coat Density in Topical Treatment Area) ([4]; 500 mM epinephrine, 3.65 min γ irradiation): 43 ± 17%; Alopecia Score (% Normal Coat Density in Topical Treatment Area) ([4]; 1000 mM epinephrine, 3.65 min γ irradiation): 94 ± 6%
NCCCNCCS [WR-1065] | lack of a protective effect | not significantly different than that seen in the vehicle control | cell cycle block in G2; also recorded: G2 cell cycle block that could not be reversed | arresting cells in the G2 phase | not reversible | active as a radioprotector | –
